According to paper PMC11395469, “BpfD Is a c-di-GMP Effector Protein Playing a Key Role for Pellicle Biosynthesis in Shewanella oneidensis” (International Journal of Molecular Sciences, 2024):

Target: T1, BpfD (Shewanella oneidensis, UniProt Q8E9G0)
T1 construct: gene SO_4323; BpfDS, cytoplasmic part (S225 to E639) with degenerated GGDEF and EAL domains, Strep-tagged
T1 sequence (Q8E9G0 225-639): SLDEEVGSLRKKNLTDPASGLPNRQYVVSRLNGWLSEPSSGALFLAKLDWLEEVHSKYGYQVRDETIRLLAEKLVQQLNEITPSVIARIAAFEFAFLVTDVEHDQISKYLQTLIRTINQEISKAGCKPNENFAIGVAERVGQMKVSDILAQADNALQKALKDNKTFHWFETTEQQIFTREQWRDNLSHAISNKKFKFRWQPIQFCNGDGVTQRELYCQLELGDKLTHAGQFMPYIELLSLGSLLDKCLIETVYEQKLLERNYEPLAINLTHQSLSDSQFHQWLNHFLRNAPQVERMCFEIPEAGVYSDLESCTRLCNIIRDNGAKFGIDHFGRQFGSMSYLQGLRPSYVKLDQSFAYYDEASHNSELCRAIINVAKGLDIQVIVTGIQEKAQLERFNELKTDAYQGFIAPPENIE
Assay: isothermal titration calorimetry with purified BpfDS; supported by thermal shift assays
Assay type: binding

Kd: 4.38 ± 0.8 µM
SMILES: Nc1nc2c(ncn2[C@@H]2O[C@@H]3CO[P@](=O)(O)O[C@H]4[C@@H](O)[C@H](n5cnc6c(=O)[nH]c(N)nc65)O[C@@H]4CO[P@](=O)(O)O[C@H]3[C@H]2O)c(=O)[nH]1 [c-di-GMP]
